Entries after “also recorded” stand apart in the source; their conditions may differ. Like-named read-outs stand apart in the source and are kept apart here.
Tests used:
AMP Kinase = experiment: Western blot of phosphorylated (activated) AMP Kinase in HIB1B cells; type: cell-based; conditions: 24 hours
Protocol: (§1) HIB1B brown fat cells were grown in DMEM (10% cosmic calf serum)+0.25 mg/ml penicillin/streptomycin at 37° C., 10% CO2.
(§2) In FIG. 2A, HIB1B cells were treated with 2 μM FCCP for 0-72 hours. In FIG. 2B, cells were treated with 50 μM FCCP for 0-48 hours. In FIG. 2C, cells were treated for 24 hours with either 50 μM FCCP or 500 μM AICAR, a compound that activates AMP Kinase. Protein was isolated, run on an SDS polyacrylamide gel, and transferred to a PVDF membrane, and blotted for the proteins indicated in the figures.

PGC-1α [1] = experiment: Real time PCR of PGC-1α expression in 10T 1/2 fibroblasts; type: cell-based
Protocol: (§3) HIB1B brown fat cells were grown in DMEM (10% cosmic calf serum)+0.25 mg/ml penicillin/streptomycin at 37° C., 10% CO2. 10T 1/2 fibroblasts were grown in DMEM+10% fetal bovine serum+0.25 mg/ml penicillin/streptomycin at 37° C., 10% CO2.
(§4) 10T 1/2 cells were treated with 50 μM FCCP, 10 μM BAPTA, a calcium chelator, or both FCCP and BAPTA for 16 hours. RNA was extracted using trizol and gene expression was measured using real time PCR. All expression levels were adjusted to actin and then the fold induction of expression was determined using the untreated cells as the control.
(§5) 10T 1/2 fibroblasts were grown in DMEM+10% fetal bovine serum+0.25 mg/ml penicillin/streptomycin at 37° C., 10% CO2. HIB1B cells were grown in DMEM+10% cosmic calf serum+0.25 mg/ml penicillin/streptomycin at 37° C., 10% CO2.
(§6) In FIG. 11A, 10T 1/2 cells were treated with 50 μM FCCP for 16 hours; in FIG. 11B, cells were treated for 72 hours with 25 μM FCCP. RNA was extracted using trizol and gene expression was measured using real time PCR. All expression levels were adjusted to actin and then the fold induction of expression was determined using the untreated cells as the control. In FIG. 11C, 10T 1/2 cells were treated for 16 hours with 50 μM FCCP. Lactate levels were measured using a lactate kit (Trinity Biotech), cells were counted, and lactate was graphed as mg lactate per million cells. In FIG. 12, HIB1B preadipocytes were treated with 25 μM FCCP, 250 μM DNP, 750 μM DNP or 1 mM DNP. RNA was extracted and run on a 1% agarose-formaldehyde gel (30 μg of RNA per lane). The gel was transferred to a nylon membrane and was probed for PGC-1α RNA and 36B4 RNA (36B4 represents the loading control).

PGC-1β [2] = experiment: Real time PCR of PGC-1β expression in 10T 1/2 fibroblasts; type: cell-based; conditions: 16 hours
Protocol: as §3, §4, §5
as §6, with “In FIG. 12, HIB1B preadipocytes were treated with 25 μM FCCP, 250 μM DNP, 750 μM DNP or 1 mM DNP. RNA was extracted and run on a 1% agarose-formaldehyde gel (30 μg of RNA per lane). The gel was transferred to a nylon membrane and was probed for PGC-1α RNA and 36B4 RNA (36B4 represents the loading control).” left out

cytochrome c [3] = experiment: Real time PCR of cytochrome c expression in 10T 1/2 fibroblasts; type: cell-based; conditions: 16 hours
Protocol: as §3, §4, §5
as §6, with “In FIG. 12, HIB1B preadipocytes were treated with 25 μM FCCP, 250 μM DNP, 750 μM DNP or 1 mM DNP. RNA was extracted and run on a 1% agarose-formaldehyde gel (30 μg of RNA per lane). The gel was transferred to a nylon membrane and was probed for PGC-1α RNA and 36B4 RNA (36B4 represents the loading control).” left out

COX II [4] = experiment: Real time PCR of COX II expression in 10T 1/2 fibroblasts; type: cell-based; conditions: 16 hours
Protocol: as §3, §4, §5
as §6, with “In FIG. 12, HIB1B preadipocytes were treated with 25 μM FCCP, 250 μM DNP, 750 μM DNP or 1 mM DNP. RNA was extracted and run on a 1% agarose-formaldehyde gel (30 μg of RNA per lane). The gel was transferred to a nylon membrane and was probed for PGC-1α RNA and 36B4 RNA (36B4 represents the loading control).” left out

ATP synthase = experiment: Real time PCR of ATP synthase expression in 10T 1/2 fibroblasts; type: cell-based; conditions: 16 hours
Protocol: as §3, §4, §5
as §6, with “In FIG. 12, HIB1B preadipocytes were treated with 25 μM FCCP, 250 μM DNP, 750 μM DNP or 1 mM DNP. RNA was extracted and run on a 1% agarose-formaldehyde gel (30 μg of RNA per lane). The gel was transferred to a nylon membrane and was probed for PGC-1α RNA and 36B4 RNA (36B4 represents the loading control).” left out

PGC-1α [5] = experiment: Northern blot of PGC-1α expression in HIB1B brown fat cells; type: cell-based
Protocol: as §1
(§7) In FIGS. 1A and 1B, HIB1B cells were treated with 25 μM FCCP for 0-25 hours. In FIG. 1C, HIB1B cells were treated for 5 hours with 0-200 μM FCCP. RNA was extracted using trizol and was resuspended in ddH2O. RNA was run on a 1% agarose-formaldehyde gel, and 30 ug of RNA was used per lane. 36B4 was used as the loading control.
In FIG. 5A, HIB1B cells were treated with 0-15 μM Antimycin A, a Complex III inhibitor. In FIG. 5B, cells were treated for either 5 or 10 hours with 0-50 μM Atractlyoside, an adenine nucleotide transporter (ANT) inhibitor. RNA was extracted, run on a formaldehyde gel and transferred to a nylon membrane as previously described. Membranes were blotted for PGC-1α mRNA.
In FIG. 7, HIB1B cells were treated for 5 hours with 0-50 μM Ruthenium Red (RR), an inhibitor of the mitochondrial Ca^2+ uniporter, simultaneously with either 5 μM or 25 μM FCCP as indicated in the figure. Untreated cells served as a control. RNA was extracted and analyzed as previously described. Membranes were blotted for PGC-1α. 36B4 served as the loading control.
as §6

animals = conditions: large doses of DNP; cited from earlier work
PGC-1β [6] = conditions: HIB1B cells
Protocol: as §1, §7

PGC-1α protein = conditions: HIB1B cells, 2 μM FCCP, up to 72 hours
Protocol: as §1, §2

cytochrome c protein = conditions: HIB1B cells, 50 μM FCCP, up to 48 hours
Protocol: as §1, §2

PGC-1α [7] = conditions: HIB1B cells, 8 hours
Protocol: as §1
In FIG. 3, cells were treated for 8 hours as indicated on the figure. RNA was extracted as previously described and quantified using real time PCR. PGC-1α mRNA levels were normalized to TBP prior to analysis.

HIB1B brown fat cells = conditions: 25 μM FCCP
Protocol: as §1
In FIG. 4, HIB1B cells were treated for either 5 or 10 hours with either 0 μM or 25 μM FCCP. ATP levels were measured using the Calbiochem ATP assay kit. For analysis, ATP levels were compared to those of untreated cells at the 5 and 10 hour time points.

PGC-1β [8] = conditions: Fao cells
Protocol: (§8) Fao liver hepatoma cells were grown in RPMI (10% fetal bovine serum)+0.25 mg/ml penicillin/streptomycin at 37° C., 5% CO2.
(§9) In FIG. 6A, Fao liver hepatoma cells were treated with 2 μM FCCP for 0-48 hours. In FIGS. 6B and 6C, cells were treated for 24 hours with either 2 μM or 25 μM FCCP. RNA was extracted and analyzed as previously described.

UCP2 = conditions: Fao cells, 24 hour treatment, 2 μM and 25 μM FCCP
Protocol: as §8, §9

10T 1/2 fibroblasts = conditions: 50 μM FCCP, 16 hours
Protocol: as §5, §6

NRF-1 [9] = conditions: 10T 1/2 fibroblasts, 50 μM FCCP, 16 hours
Protocol: as §5, §6

COX II [10] = conditions: PGC-1α knock out preadipocytes, 25 μM FCCP, 24 hours
Protocol: (§10) Wild type and PGC-1α knock out preadipocytes were grown in DMEM+20% fetal bovine serum+0.25 mg/ml penicillin/streptomycin at 37° C., 10% CO2.
(§11) Wild type and PGC-1α knock out preadipocytes were treated for 24 hours with or without 25 μM FCCP. RNA was extracted using trizol and gene expression was measured using real time PCR. All expression levels were adjusted to actin and then the fold induction of expression was determined using the untreated cells as the control.

ERRα = conditions: PGC-1α knock out preadipocytes, 25 μM FCCP, 24 hours
Protocol: as §10, §11

NRF-1 [11] = conditions: PGC-1α knock out preadipocytes, 25 μM FCCP, 24 hours
Protocol: as §10, §11

PGC-1β [12] = conditions: PGC-1α knock out preadipocytes, 25 μM FCCP, 24 hours
Protocol: as §10, §11

[13] = test system: adenine nucleotide translocase (ANT); conditions: PGC-1α knock out preadipocytes, 25 μM FCCP, 24 hours
Protocol: as §10, §11

cytochrome c [14] = conditions: PGC-1α knock out preadipocytes, 25 μM FCCP, 24 hours
Protocol: as §10, §11

[15] = in vivo; cited from earlier work
[16] = 10T 1/2 cells, 10 μM BAPTA with 50 μM FCCP
[17] = 5 hours, increasing doses of FCCP (0-200 μM)
[18] = 10T 1/2 fibroblasts, 50 μM FCCP

Protocol for mice: The procedures to be used in these experiments are as follows: IP injections of the chemical uncoupling agent FCCP are performed daily (see experimental design for dose and time information). The body temperature of the mice is measured one hour after injections so as to monitor pain and distress. If the temperature rises above 42 degrees the mice are sacrificed. The following tissues are collected from euthanized mice: brown fat, skeletal muscle, and liver, which contribute the most to standard metabolic rate. In addition, heart, pancreas, large intestine, small intestine, gall bladder, spleen, brain, testes, and ovary are collected. Tissues are used to assess PGC-1 gene expression and protein levels.
The maximum dose of FCCP that is used in this experiment is 0.5 mg/kg/day. The experiment is performed in C57 BL/6J and ob/ob (C57 BL/6J background) mice ordered from Jackson Laboratories.
Mice receive one IP injection of FCCP daily. The following experiment is repeated three times for statistical significance.
Body temperature is measured one hour after injections and weight is recorded every three days. Mice are sacrificed to avoid pain if the body temperature rises above 42 degrees. After the treatments as described above the mice are sacrificed using cervical dislocation with pre-anesthesia. […]

NC(=O)c1ncn([C@@H]2O[C@H](CO)[C@@H](O)[C@H]2O)c1N [AICAR]
AMP Kinase activation (phospho-AMP kinase) (AMP Kinase; 500 μM AICAR, positive control): activation

O=C(O)CN(CC(=O)O)c1ccccc1OCCOc1ccccc1N(CC(=O)O)CC(=O)O [BAPTA]
effect on FCCP-mediated induction of PGC-1α (PGC-1α [1]; 10T 1/2 cells, 10 μM BAPTA with 50 μM FCCP, 16 hours): blocked
effect on FCCP-mediated induction of PGC-1β (PGC-1β [2]; [16]): blocked
effect on FCCP-mediated induction of cytochrome c (cytochrome c [3]; [16]): blocked
effect on FCCP-mediated induction of COX II (COX II [4]; [16]): blocked
effect on FCCP-mediated induction of ATP synthase (ATP synthase; [16]): blocked

O=[N+]([O-])c1ccc(O)c([N+](=O)[O-])c1 [DNP, 2,4-dinitrophenol]
PGC-1α expression (PGC-1α [5]; 5 hours, three concentrations of DNP (250 μM, 750 μM, 1 mM)): caused an increase; also recorded: induces
toxic effect of large doses (animals): almost immediate onset of rigor mortis

N#CC(C#N)=NNc1ccc(OC(F)(F)F)cc1 [FCCP, carbonylcyanide-p-trifluoromethoxyphenylhydrazone]
PGC-1α expression levels (PGC-1α [5]; 25 μM FCCP, after 5 hours, sustained for 20 additional hours): induced
PGC-1α expression levels (PGC-1α [5]; [17]): increased
PGC-1β expression levels (PGC-1β [6]; 25 μM FCCP, after 10-15 hours, remained induced until 25 hours): induced
PGC-1β expression levels (PGC-1β [6]; [17]): did not increase
PGC-1α protein expression (PGC-1α protein): induced
cytochrome c protein levels (cytochrome c protein): induced
AMP Kinase activation (phospho-AMP kinase) (AMP Kinase; 50 μM FCCP): activated
induction of PGC-1 expression levels, real time PCR (PGC-1α [7]; 25 μM FCCP): 5.5 fold
increase in PGC-1α expression, real time PCR (PGC-1α [7]; 25 μM and 50 μM FCCP): 5-6 fold
induction of PGC-1α levels, real time PCR (PGC-1α [7]; 50 μM FCCP): 5 fold
drop in cellular ATP levels (HIB1B brown fat cells; 5 hours, versus untreated cells): 25%
ATP levels below that of untreated cells (HIB1B brown fat cells; 10 hours): approximately 20%
PGC-1β expression levels (PGC-1β [8]; 2 μM FCCP, after approximately 24 hours): increased
PGC-1β expression levels (PGC-1β [8]; 24 hour treatment, 2 μM and 25 μM FCCP): increased
UCP 2 expression levels (UCP2): increased
expression of the PGC-1 coactivators and their target genes after long term treatment (PGC-1α [1]; 10T 1/2 fibroblasts, 25 uM FCCP, 72 hours): remain elevated
PGC-1α expression (PGC-1α [1]; 10T 1/2 fibroblasts, 50 μM FCCP, 16 hours): induced
PGC-1β expression (PGC-1β [2]; [18]): induced
cytochrome c expression (cytochrome c [3]; [18]): induced
COX II expression (COX II [4]; [18]): induced
ATP synthase expression (ATP synthase; [18]): induced
lactate levels (10T 1/2 fibroblasts): induced
NRF-1 expression (NRF-1 [9]): induced
FCCP induction of COX II in cells that lack PGC-1α (COX II [10]): blocked
FCCP induction of ERRα in cells that lack PGC-1α (ERRα): blocked
FCCP induction of NRF-1 in cells that lack PGC-1α (NRF-1 [11]): blocked
FCCP induction of PGC-1β in cells that lack PGC-1α (PGC-1β [12]): blocked
FCCP induction of adenine nucleotide translocase (ANT) in cells that lack PGC-1α [13]: blocked
FCCP induction of cytochrome c in cells that lack PGC-1α (cytochrome c [14]): blocked
PGC-1α RNA and protein levels in brown fat and muscle tissue (mice; daily IP injection of FCCP): increase
body weight and adiposity (mice; safe dose of FCCP, daily IP injection): decrease
LD50 for FCCP relative to that of DNP [15]: about 5 times less

N.N.N.N.N.N.N.N.N.N.N.N.N.N.[Cl-].[Cl-].[Cl-].[Cl-].[Cl-].[Cl-].[O-2].[O-2].[Ru+3].[Ru+3].[Ru+4] [Ruthenium Red]
effect on FCCP-mediated induction of PGC-1α expression (PGC-1α [5]; 5 hours, 0-50 μM Ruthenium Red with 5 μM or 25 μM FCCP, reduced at 5, 10 and 25 μM RR): blocked part

C=C1[C@@H]2CC[C@H]3[C@]4(C)C[C@H](O[C@@H]5O[C@H](CO)[C@@H](OS(=O)(=O)O)[C@H](OS(=O)(=O)O)[C@H]5OC(=O)CC(C)C)C[C@@H](C(=O)O)[C@H]4CC[C@]3(C2)[C@H]1O [atractyloside]
PGC-1α expression (PGC-1α [5]; 5 μM atractyloside, 10 hours): increased
PGC-1α expression (PGC-1α [5]; 50 μM atractyloside, 5 hours): increased

Antimycin A
PGC-1α expression (PGC-1α [5]; 5 μM Antimycin A): increased
PGC-1α expression levels (PGC-1α [5]; 10 μM Antimycin): increase

Source: US7691578B2, “Methods and compositions for treating obesity” (Dana-Farber Cancer Institute, Inc., priority 2004, dated 2010)
